# Measured values reported in patent US6903219B2 (dated 2005).
row,Structure (SMILES),melting point [°C]
1,C=C(C)CO[C@H]1[C@H](C)OC(=O)[C@@H](NC(=O)c2nccc(OC)c2OCc2ccccc2)COC(=O)[C@@H]1Cc1ccccc1,50 to 52
2,CCCO[C@H]1[C@H](C)OC(=O)[C@@H](NC(=O)c2nccc(OC)c2O)COC(=O)[C@@H]1Cc1ccccc1,150 to 152
3,COc1ccnc(C(=O)N[C@H]2COC(=O)[C@H](Cc3ccccc3)[C@@H](OCC(C)C)[C@H](C)OC2=O)c1O,168 to 169
4,C=C(C)CO[C@H]1[C@H](C)OC(=O)[C@@H](NC(=O)c2nccc(OC)c2OCOC(C)=O)COC(=O)[C@@H]1Cc1ccccc1,102 to 104
